Experimental data published in publication PMC5068747, “Using C. elegans Forward and Reverse Genetics to Identify New Compounds with Anthelmintic Activity” (PLoS Neglected Tropical Diseases, 2016).
Like-named read-outs stand apart in the source and are kept apart here.

Columns and labels:
[1] = tested on: C. elegans VC2010 (wild type); test: WormScan screen of C. elegans growth, fecundity, motility and mortality; assay type: in vivo, Caenorhabditis elegans; set-up: normalized WormScan score: dose or concentration left out as unconfirmed
Protocol: (§1) All compound libraries were stored in 96-well plates, with 80 drugs per plate (columns 1 and 12 left empty). A BioGrid BG600 pinning robot (Digilab / BioRobotics) was used for compound transfer. The robot uses a 96-pin tool (0.7 mm dia.) to transfer a nominal volume of 340 nL of compound. For retesting, compounds were hand pinned from the original library plates to assay plates using a single 0.7 mm dia. pin. The assay plates were 96-well clear flat-bottom microplates containing 2% χ1666 E.coli bacteria in 0.5X Liquid Nematode Growth Media (LNGM) plus cholesterol (Bacteria were mass-grown in rich media, and harvested by centrifugation to produce a thick paste of bacterial cells that was kept frozen at -20°C. Cells were resuspended at 2% W/V in 0.5X LNGM to produce liquid worm food). Using a COPAS Biosort (Union Biometrica), two L4 to young adult stage VC2010 worms were added to each well of the plate in a final volume of 45 μL. After five days of exposure to the compounds, the plates were scanned and the data analyzed. A five day time period was chosen to be able to observe effects over all stages of the life cycle and through at least one round of replication. The initial proof-of-principle primary screen was performed manually using a dissecting microscope. Phenotypes scored included decreased motility, reduced brood size, and/or death as described previously. For high throughput screening of the Chembridge and Maybridge compound libraries we used the program WormScan, which was adapted for screening 96-well flat-bottom LNGM plates. Using WormScan it was possible to screen four 96-well plates at a time. Plates were scanned twice, at a resolution of 1200 dots per inch, 16-bit grayscale, producing a jpeg image. The light intensity produced by the scanner was sufficient to cause negative phototaxis equivalent to a physical stimulus for mortality determination. The time required to scan four 96-well plates using an Epson Perfection V700 Photo Scanner was less than ten minutes. The time to screen a single plate was less than 1.2 minutes, with less than ten seconds between scans.
(§2) WormScan was used to screen for the same phenotypes as in the manual screen (reduced brood size, reduced behavior/motility response and increased mortality). Two sequential scans for each 96-well plate were aligned to a reference region of interest (ROI). Image analysis was based on a difference image score calculated for each ROI. The difference image score (WormScan score) was normalized using a “percent of control” method to derive a normalized WormScan score. […] Wild-type growth in 1% DMSO (Fig 1A) results in a normalized WormScan score of 100. Exposure to 50 nM ivermectin gives a score of 0 (Fig 1C), and complete absence of worms gives a score of 0 (Fig 1D). For the primary screen the WormScan score was calculated using custom macro scripts written for Fiji. For secondary screening and any subsequent studies the WormScan score was calculated using a standalone Java program (See supplemental). Probit regression of mortality was calculated using Mathematica 8.0.

[2] = tested on: C. elegans DA1316 (avr-14(ad1302); avr-15(vu227); glc-1(pk54), ivermectin resistant); test: IC50 on ivermectin resistant C. elegans strain; assay type: in vivo, Caenorhabditis elegans; settings: 5 days exposure, 2 L4 per well, three biological replicates
[3] = tested on: C. elegans CB3474 (ben-1(e1880), benomyl resistant); test: IC50 on benzimidazole resistant C. elegans strain; assay type: in vivo, Caenorhabditis elegans; settings: 5 days exposure, 2 L4 per well, three biological replicates
[4] = tested on: C. elegans CB193 (unc-29(e193), levamisole resistant); test: IC50 on levamisole resistant C. elegans strain; assay type: in vivo, Caenorhabditis elegans; settings: 5 days exposure, 2 L4 per well, three biological replicates
[5] = tested on: C. elegans RB2119 (acr-23(ok2804), monepantel-resistant); test: IC50 on amino-acetonitrile resistant C. elegans strain; assay type: in vivo, Caenorhabditis elegans; settings: 5 days exposure, 2 L4 per well, three biological replicates, read-out: IC50, strain RB2119 (amino-acetonitriles)
[6] = tested on: C. elegans VC3635 (pink-1 gk3615, D19 resistant); test: IC50 on CID 2747322 resistant C. elegans strain VC3635; assay type: in vivo, Caenorhabditis elegans; settings: 5 days exposure, 2 L4 per well, three biological replicates
Protocol: as §1, §2
(§3) A standard ethyl methanesulfonate (EMS) mutagenesis protocol was carried out using VC2010 in order to generate mutants resistant to CID 2747322 exposure. First larval stage (L1) F2 progeny of mutagenized P0s were exposed to CID 2747322 at 200 μM in liquid worm food in 24-well tissue culture plates for five days at room temperature, and two independently isolated resistant lines (VC3614 and VC3615) were identified. […]

[7] = tested on: C. elegans VC3631 (mev-1 gk3613, D19 resistant); test: IC50 on CID 2747322 resistant C. elegans strain VC3631; assay type: in vivo, Caenorhabditis elegans; settings: 5 days exposure, 2 L4 per well, three biological replicates
Protocol: as §1, §2, §3

[8] = tested on: Human embryonic kidney (HEK293) cells; test: HEK293 viability, MTT colorimetric assay; assay type: cell-based; settings: read-out: Mammalian IC50
Protocol: Potential anthelmintic compounds identified from primary screening were further tested against mammalian cells and yeast to determine whether they had deleterious effects in those organisms. Human embryonic kidney (HEK293) cells were grown in Dulbecco’s Modified Eagle’s Medium (DMEM; Sigma) containing 5% fetal bovine serum (FBS; Sigma) in 96-well plates tissue culture plates. Compounds were added 24h post-plating at 10, 30, 100, or 300 μM final concentrations. Dimethyl sulfoxide (DMSO) was used as a negative control at 0.1%. Cells were treated for 24 or 48 hours, after which time viability was assessed using a 3-(4,5-dimethylthiazol-2-yl)-2,5-diphenyltetrazolium bromide (MTT) colorimetric assay. Percent viability was determined by comparing treatment values to DMSO control values.

[9] = tested on: S. cerevisiae yeast strain BY4743; test: Yeast growth rate (OD600) dose titration; assay type: cell-based; settings: BY4743, YPD, growth rate reduced by 50%
Protocol: The S. cerevisiae yeast strain BY4743 (MATa/α his3Δ1/his3Δ1 leu2Δ0/leu2Δ0 LYS2/lys2Δ0 met15Δ0/MET15 ura3Δ0/ura3Δ0) was used for all yeast experiments and was grown using yeast extract peptone dextrose (YPD) media at pH 7 [52]. BY4743 was grown overnight to initial log phase and was then grown with the compound identified in the C. elegans assay. The growth rate was quantified by continuously monitoring the optical density of the liquid yeast growth at OD600. The compound was screened in a dose-titration in YPD as described. The IC50 was the concentration required to reduce the growth rate or Average G value by 50% compared to a vehicle control (2% DMSO).

C. elegans VC2010 [10] = test: Manual inspection of growth, brood size, developmental stage and recovery of C. elegans in drug; assay type: in vivo, Caenorhabditis elegans; settings: L1s removed from the drug
Protocol: WormScan is a powerful tool to identify compounds with potential effects on the nematode, but it is still necessary to do manual inspection of wells with few animals to determine details of growth, behavior and fecundity. Wild-type worms grown in 90 μM CID 2747322 have brood sizes reduced by 97%. […] All current classes of anthelmintic have greater specificity towards certain life-stages. It is interesting that when removed from the drug L1s will recover and develop, and generally become fertile adults (See S3 Fig).
Supplementary file pntd.0005058.s002.tiff: S2 Fig Developmental stage of inhibition in C. elegans after CID 2747322 exposure. Ten VC2010 L1 stage C. elegans were sorted into a DMSO control well or 90 μM of CID 2747322. Nematodes were removed from the DMSO control or CID 2747322 after 24/48/72 hours and allowed to recover for 30 minutes on standard agar plates. (TIFF) Click here for additional data file.
Supplementary file pntd.0005058.s003.tiff: S3 Fig Development of C. elegans after removel from CID 2747322. Greater than 50 VC2010 L1 stage C. elegans were sorted into a DMSO control well or 90 μM of CID 2747322. Nematodes were removed from DMSO control or CID 2747322 after 2 days of exposure and left to recovery for 24/48/72 hours. (TIFF) Click here for additional data file.

nematodes = tested on: nematodes; set-up: method as in PMID 10924467; settings: cited from earlier work
A. suum complex II = tested on: A. suum complex II; set-up: method as in PMID 26198225; settings: cited from earlier work
porcine complex II = tested on: porcine complex II; set-up: method as in PMID 26198225; settings: cited from earlier work
C. elegans VC2010 [11] = test: Manual phenotyping pilot screen of 3,584 known compounds (CCBN library); assay type: in vivo, Caenorhabditis elegans; settings: dissecting microscope, positively confirmed drugs of CCBN library
[12] = Caenorhabditis elegans, 120 h, 5 days exposure, 2 L4 per well, three biological replicates, read-out: IC50, strain VC2010 (wild type)
[13] = 5 days exposure, 2 L4 per well, three biological replicates, read-out: IC50, strain VC2010 (wild type)
[14] = C. elegans, 5 days exposure, read-out: Nematode IC50

For `c1ccc2[nH]cnc2c1` [Benzimidazole], the IC50 [1, 12] was 61 µM, the IC50 ([2]; Caenorhabditis elegans, 120 h) was 59 µM and the IC50 ([3]; Caenorhabditis elegans, 120 h) was > 1000 µM. For the same compound, the IC50 ([4]; Caenorhabditis elegans, 120 h) was 113 µM, the IC50 ([5]; Caenorhabditis elegans, 120 h) was 28 µM and the IC50 ([6]; Caenorhabditis elegans, 120 h) was 118 µM. It also gave an IC50 ([7]; Caenorhabditis elegans, 120 h) of 91 µM.

With `FC(F)(F)c1cc(NCc2ccccc2)nc(-c2ccccc2)n1` [CID 796072] the IC50 [1, 13] was 7 µM, the “greater sensitivity in C. elegans than in other organisms (nematode index)” value ([1]; C. elegans versus mammalian cells, Table 1) was “four-fold” and the IC50 [1, 14] was 7 µM. For the same compound, the IC50 [8] was 28 µM, the IC50 [9] was > 1000 µM and the IC50 [2] was 8 µM. For the same compound, the IC50 [3] was 2 µM, the IC50 [4] was 3 µM and the IC50 [5] was 2 µM. For the same compound, the IC50 [6] was 9 µM and the IC50 [7] was 11 µM.

In the case of `O=C(Nc1ccc(Cl)cc1)Nc1ccc2ncccc2c1` [CID 2823320], the IC50 [1, 14] is reported as 40 µM, the IC50 [8] is reported as 45 µM and the IC50 [9] is reported as > 1000 µM.

`Cc1nc2c(c3c1[nH]c1ccccc13)C(=O)CC(C)(C)C2` [CID 3254982] showed an IC50 [1, 14] of 17 µM, an IC50 [8] of 37 µM and an IC50 [9] of 140 µM.

With `C=C(C)C1CC=C(CN(C)C2CCN(C)CC2)CC1` (stereo not drawn) [CID 6456299] the IC50 [1, 14] was > 500 µM, the IC50 [8] was 184 µM and the IC50 [9] was > 1000 µM.

In the case of `O=C(NCCc1ncc(C(F)(F)F)cc1Cl)c1ccccc1C(F)(F)F` [Fluopyram, reference compound], the IC50 ([1]; Caenorhabditis elegans, 120 h, read-out: Nematode IC50) is reported as 0.05 µM, the IC50 ([8]; Homo sapiens) is reported as 300 µM and the IC50 ([9]; Saccharomyces cerevisiae) is reported as > 1000 µM. For the same compound, the “outcome after exposure / removal from drug” value (C. elegans VC2010 [10]) was “animals are killed”.

Work on `c1ccc([C@H]2CN3CCSC3=N2)cc1` [Levamisole] yielded an IC50 [1, 12] of 4 µM, an IC50 ([2]; Caenorhabditis elegans, 120 h) of 8 µM and an IC50 ([3]; Caenorhabditis elegans, 120 h) of 2 µM. For the same compound, the IC50 ([4]; Caenorhabditis elegans, 120 h) was > 250 µM, the IC50 ([5]; Caenorhabditis elegans, 120 h) was 4 µM and the IC50 ([6]; Caenorhabditis elegans, 120 h) was 6 µM. It also gave an IC50 ([7]; Caenorhabditis elegans, 120 h) of 10 µM.

In the case of `CC1(C)SC2C(N)C(=O)N2C1C(=O)O` (stereo not drawn) [WACT162], the effect on nematodes (nematodes) is listed as “only reduces growth”.

For `CC(C)Oc1cccc(NC(=O)c2ccccc2C(F)(F)F)c1` [flutolanil], the IC50 (A. suum complex II) is given as 0.0245 µM and the IC50 (porcine complex II) is given as 8.61 µM.

For Ivermectin, the “WormScan Score” value ([1]; 50 μM, five days exposure, normalized, DMSO control = 100) was 0, the IC50 [1, 13] was 0.03 µM and the IC50 [1, 14] was 0.03 µM. For the same compound, the “normalized WormScan score” value ([1]; normalized, DMSO control = 100) was 0, the IC50 [8] was 300 µM and the IC50 [9] was > 1000 µM. It also gave an IC50 [2] of 7 µM, an IC50 [3] of 0.01 µM and an IC50 [4] of 0.01 µM. It also gave an IC50 [5] of 0.01 µM, an IC50 [6] of 0.01 µM and an IC50 [7] of 0.01 µM. For the same compound, the “Worm Reaction in Drug” value (C. elegans VC2010 [11]) was “appears dead/paralyzed no progeny”.
